Data taken from US7160919B2, “C7 lactyloxy-substituted taxanes” (Florida State University Research Foundation, Inc., priority 2004, dated 2007).

Legend:
VM46 colon cell line = assay: In vitro cytotoxicity, cell colony formation assay (VM46); format: cell-based; conditions: 72 h drug incubation, colonies counted after 7 days, concentration producing 50% inhibition of colony formation
Description: (§1) Four hundred cells (HCT116) were plated in 60 mm Petri dishes containing 2.7 mL of medium (modified McCoy's 5a medium containing 10% fetal bovine serum and 100 units/mL penicillin and 100 µg/mL streptomycin). The cells were incubated in a CO2 incubator at 37° C. for 5 h for attachment to the bottom of Petri dishes. The compound identified in Example 1 was made up fresh in medium at ten times the final concentration, and then 0.3 mL of this stock solution was added to the 2.7 mL of medium in the dish. The cells were then incubated with drugs for 72 h at 37° C. At the end of incubation the drug-containing media were decanted, the dishes were rinsed with 4 mL of Hank's Balance Salt Solution (HBSS), 5 mL of fresh medium was added, and the dishes were returned to the incubator for colony formation. The cell colonies were counted using a colony counter after incubation for 7 days. Cell survival was calculated and the values of IC50 (the drug concentration producing 50% inhibition of colony formation) were determined for each tested compound.
An identical assessment was carried out using the VM46 colon cell line.
(§2) The assays described above were repeated using the compound identified in Example 2. The results of these assays are tabulated below in comparison with data for paclitaxel and docetaxel.

HCT116 cells = assay: In vitro cytotoxicity, cell colony formation assay (HCT116); format: cell-based; conditions: colonies counted after 7 days, concentration producing 50% inhibition of colony formation
Description: as §1, §2

[1] = Homo sapiens, HCT-116, 72 h drug incubation

SMILES	IC50 (VM46 colon cell line)	IC50 (HCT116 cells; 72 h drug incubation)	IC50 (HCT116 cells; [1])	melting point
CC(=O)O[C@@]12CO[C@@H]1C[C@H](O)[C@@]1(C)C(=O)[C@H](O)C3=C(C)[C@@H](OC(=O)[C@H](O)[C@@H](NC(=O)OC(C)(C)C)c4ccccc4)C[C@@](O)([C@@H](OC(=O)c4ccccc4)[C@H]21)C3(C)C [Docetaxel, docetaxel, reference compound]	6.7 nM	0.6 nM		
CC(=O)O[C@@]12CO[C@@H]1C[C@H](OC(=O)[C@@H](C)O)[C@@]1(C)C(=O)[C@H](O)C3=C(C)[C@@H](OC(=O)[C@H](O)[C@@H](NC(=O)OC(C)(C)C)c4ccco4)C[C@@](O)([C@@H](OC(=O)c4ccccc4)C12)C3(C)C (stereo partly drawn) [7-((R)-(+)-2-hydroxyloxypropionyl)-2-furyl-Docetaxel]	4.22 nM		0.05 nM	
CC(=O)O[C@H]1C(=O)[C@@]2(C)[C@H]([C@H](OC(=O)c3ccccc3)[C@]3(O)C[C@H](OC(=O)[C@H](O)[C@@H](NC(=O)c4ccccc4)c4ccccc4)C(C)=C1C3(C)C)[C@]1(OC(C)=O)CO[C@@H]1C[C@@H]2O [Paclitaxel, paclitaxel, reference compound]	20 nM		2.1 nM	
CC(=O)O[C@@]12CO[C@@H]1C[C@H](OC(=O)[C@H](C)O)[C@@]1(C)C(=O)[C@H](O)C3=C(C)[C@@H](OC(=O)[C@H](O)[C@@H](NC(=O)OC(C)(C)C)c4ccco4)C[C@@](O)([C@@H](OC(=O)c4ccccc4)C12)C3(C)C (stereo partly drawn) [7-((S)-(−)-2-hydroxyloxypropionyl)-2-furyl-Docetaxel]	2.5 nM		0.17 nM	174 to 176 °C
